Source: patent publication US20120040976A1, “SMALL MOLECULE IMMUNOMODULATORS FOR ALZHEIMER'S DISEASE” (HUMAN BIOMOLECULAR RESEARCH INSTITUTE, priority 2008, published 2012)

Key:
[1] = tested on: cortical neurons in hAPP-transfected rat brain slices; assay: Rat brain slice AD model (hAPP-induced neurodegeneration); format: cell-based; details: rat brain slices transfected with EYFP and hAPP, three concentrations, 72 hrs (FIG. 8)
Excerpt: A rodent brain slice model for AD has been developed where the expression of human APP by particle-mediated gene transfer (“biolistics”) leads to typical signs of neuronal dystrophy, and ultimately the degeneration and clearance of the cell body with a few days. Brain slice preparations offer a powerful experimental system because they preserve the three-dimensional tissue architecture and local environment of neurons and glia far better than dissociated cell culture. As such, drug lead candidates that show neuroprotective activity in brain-tissue based disease models have a much increased ability to predict efficacy in vivo and ultimately in the clinic.
Preparation of Brain Slice Explants. Cd Sprague-Dawley Rat Pups are Used at Postnatal day 10. Brains are cut into 250 μm coronal slices on a vibratome in chilled medium baths. Approximately 6 such slices can be cut from each rat brain; each are divided into “hemi-coronal” slices which are placed in individual 6-well transwell inserts. […]
Assessment of cortical neuron health. […] Representative images are captured using a digital camera on a fluorescence microscope. After 3 days, cortical neurons are scored. […] Statistical significance of the neuronal counts in compound-treated slices is evaluated by ANOVA analysis, followed by post hoc Dunnett's analysis at the p≦0.05 confidence level. […]

[2] = Metabolic stability in human liver microsomes; format: in vitro ADME; details: human, read-out: Half life, t1/2 HLM
VDR = VDR gene expression by qPCR in U-937 human monocytic cells treated with curcumins plus Aβ; format: cell-based
Procedure: Cell culture conditions for monocytic cell lines. Human and mouse monocyte cell lines are grown in RPMI-1640 medium with 10% fetal bovine serum (FBS), plus glutamine and pen/strep. For treatment with compounds (curcuminoids+/−Aβ), replicate sets of 0.5-1.0 mL cultures containing 1-2×10^6 cells are set up in the wells of 48-well tissue culture plates. Both replicate sets have at least one control well receiving no added curcuminoid to provide baseline expression controls for untreated, and Aβ-only treated cells. Remaining wells receive curcuminoid in a range of 10-fold serial dilutions in DMSO, typically from […] Cultures are incubated for 20-24 hours (“overnight”) at 37° C. in atmosphere with 5% CO2. After one overnight, to one of replicate sets of cultures is added Aβ (1-42) peptide to a final concentration of 5 μg/mL.
RNA isolation and cDNA synthesis. After the first overnight incubation in the presence of curcuminoid, cells from one replicate set of wells are collected by centifugation. RNAs are extracted from pelleted cells using miniprep column kits following manufacturer's protocol for animal cells. […] of total cellular RNA from each well is quantitated using a Nanodrop spectrophotometer, and first-strand total cDNA is prepared from 0.3-1.0 μg RNA by random-hexamer priming. Following the second 20 hr. incubation in the presence of Aβ, RNA extractions and cDNA synthesis are similarly performed.
Assay development. Gene-specific mRNA levels are determined using a real-time thermocycler, and by normalizing to expression of one or more control genes. Assays for quantifying mRNA levels are based on gene sequences reported in NCBI Genbank. PCR oligonucleotide primers are selected spanning introns to minimize the opportunity for amplication from any contaminating genomic DNA in the RNA preps. Oligonucleotides are typically tested and used at a concentration of 200 nM in qPCR reactions containing SYBR dye. Control reactions include template from cDNA synthesis reactions either + or − reverse transcriptase (RT), as well as no-template controls (ntc). All reactions are performed in triplicate. Reactions are typically run with 40 cycles of 95° C. (10 sec) and 58° C. (30 sec). Melt curves based on incremental 0.5° C. increases are determined for new assays to test for uniformity of amplified products. Reaction conditions are modified as needed depending on initial test results. ‘Working’ assays are selected based on clear RNA-dependent amplification and absence of product in ‘ntc’ reactions. The following assay primers are used: […]
(§1) qPCR reactions of cultured monocyte cDNAs. One μL total cellular cDNA per reaction is used in triplicate reactions for each test gene, and for each culture treatment. SYBR-Green reactions were run on a Continuous Fluorescence real-time thermocycler and analyzed. Cycle threshold (Ct) values are recorded for each replicate reaction, and are then averaged and normalized against mean Ct values from one or more control genes. Fold-expression differences relative to untreated cells are determined using the 2^−ΔΔCt method as previously described. Data from the curcumin concentration range are plotted in order to determine EC50 values (concentrations producing one-half maximal stimulant activity), which are used for comparisons of potency between different compounds. Data are also evaluated for each gene with regard to sensitivity, maximally effective concentration of curcuminoid, response to Aβ, and overall magnitude of fold-expression changes.
Data showing in vitro up-regulation of genes associated with Aβ phagocytosis in response to curcumins. Natural curcumins and synthetic analogs were tested in U-937 human monocyte cells in vitro for their ability to modulate expression of the genes MGAT3 and TLRs −2, −3, and −4. […]

TLR 7 = TLR 7 transcription ratio, AD patient / control PBMCs (qPCR); format: cell-based, human; details: Aβ stimulation
Procedure: as §1
(§2) MGAT3 and/or TLR transcription were tested by qPCR in human monocyte cells treated with curcuminoids and compared the results to those treated with vehicle (Table 7). As discussed above, activation or up-regulation of macrophage MGAT3 or TLR's results in many functional outcomes, including the enhancement of […] and removal of Aβ, increased apoptosis, secretion of inflammatory cytokines, and other anti-AD antimicrobial activities. […]

TLR 2 = TLR 2 transcription ratio, AD patient / control PBMCs (qPCR); format: cell-based, human; details: Aβ stimulation
In short: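 Via qPCR on cultured human monocyte cDNA, curcuminoid-treated versus vehicle, with Aβ stimulation, in AD patient and control cells. SYBR-Green triplicate reactions; Ct averaged, normalised to control genes, fold change by 2^−ΔΔCt. EC50 taken from curcumin concentration-response data.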

TLR 6 = TLR 6 transcription ratio, AD patient / control PBMCs (qPCR); format: cell-based, human; details: Aβ stimulation
Procedure: as §1, §2

Average solubility = format: physicochemical

O=C(/C=C(O)/C=C/c1ccc(O)cc1)/C=C/c1ccc(O)cc1 [Compound 1, 5-Hydroxy-1,7-bis-(4-hydroxy-phenyl)-hepta-1,4,6-trien-3-one, reference compound]
Neuroprotective effect against hAPP-induced neurodegeneration [1]: dose-dependent trend for AD related neuroprotection
half-life [2]: 16.4 min
VDR normalized expression response (in words) (VDR; human monocytes, plus Aβ): modest increases
Relative gene expression VDR, increased expression relative to control cells (VDR; human monocytic cells (U-937), curcumin plus Aβ): + ((+) <20-fold)
Relative ratio of TLR 7 transcription in AD patient / control PBMC's (TLR 7): TLR 7 ++ ((++) indicates a ratio of 1.5-2.0)
Relative ratio of TLR 2 transcription in AD patient / control PBMC's (TLR 2): TLR 2 + ((+) indicates a ratio of 1.0-1.5)
Relative ratio of TLR 6 transcription in AD patient / control PBMC's (TLR 6): TLR 6 + ((+) indicates a ratio of 1.0-1.5)
Avg. Solubility (Average solubility): insol
